From PMC3991565 (Science (New York, N.Y.), 2014)

Key:
[1] = biological target: human mGlu1 receptor (Homo sapiens, UniProt Q13255); test: FITM binding affinity at mGlu1
[2] = biological target: wild-type (WT) full-length human mGlu1 receptor (Homo sapiens, UniProt Q13255); test: FITM-mediated antagonism of glutamate at wild-type full-length receptor; type: cell-based; settings: WT full-length human mGlu1, versus glutamate
[3] = system: mGlu1; settings: mGlu1 NAM potency of FITM and analogs used for docking; cited from earlier work
[4] = biological target: mGlu5 (Homo sapiens, UniProt P41594); test: FITM selectivity for mGlu1 over mGlu5; type: cell-based; settings: mGlu1 versus mGlu5, Fig. S12
Sequence of mGlu5 (P41594 21-1212): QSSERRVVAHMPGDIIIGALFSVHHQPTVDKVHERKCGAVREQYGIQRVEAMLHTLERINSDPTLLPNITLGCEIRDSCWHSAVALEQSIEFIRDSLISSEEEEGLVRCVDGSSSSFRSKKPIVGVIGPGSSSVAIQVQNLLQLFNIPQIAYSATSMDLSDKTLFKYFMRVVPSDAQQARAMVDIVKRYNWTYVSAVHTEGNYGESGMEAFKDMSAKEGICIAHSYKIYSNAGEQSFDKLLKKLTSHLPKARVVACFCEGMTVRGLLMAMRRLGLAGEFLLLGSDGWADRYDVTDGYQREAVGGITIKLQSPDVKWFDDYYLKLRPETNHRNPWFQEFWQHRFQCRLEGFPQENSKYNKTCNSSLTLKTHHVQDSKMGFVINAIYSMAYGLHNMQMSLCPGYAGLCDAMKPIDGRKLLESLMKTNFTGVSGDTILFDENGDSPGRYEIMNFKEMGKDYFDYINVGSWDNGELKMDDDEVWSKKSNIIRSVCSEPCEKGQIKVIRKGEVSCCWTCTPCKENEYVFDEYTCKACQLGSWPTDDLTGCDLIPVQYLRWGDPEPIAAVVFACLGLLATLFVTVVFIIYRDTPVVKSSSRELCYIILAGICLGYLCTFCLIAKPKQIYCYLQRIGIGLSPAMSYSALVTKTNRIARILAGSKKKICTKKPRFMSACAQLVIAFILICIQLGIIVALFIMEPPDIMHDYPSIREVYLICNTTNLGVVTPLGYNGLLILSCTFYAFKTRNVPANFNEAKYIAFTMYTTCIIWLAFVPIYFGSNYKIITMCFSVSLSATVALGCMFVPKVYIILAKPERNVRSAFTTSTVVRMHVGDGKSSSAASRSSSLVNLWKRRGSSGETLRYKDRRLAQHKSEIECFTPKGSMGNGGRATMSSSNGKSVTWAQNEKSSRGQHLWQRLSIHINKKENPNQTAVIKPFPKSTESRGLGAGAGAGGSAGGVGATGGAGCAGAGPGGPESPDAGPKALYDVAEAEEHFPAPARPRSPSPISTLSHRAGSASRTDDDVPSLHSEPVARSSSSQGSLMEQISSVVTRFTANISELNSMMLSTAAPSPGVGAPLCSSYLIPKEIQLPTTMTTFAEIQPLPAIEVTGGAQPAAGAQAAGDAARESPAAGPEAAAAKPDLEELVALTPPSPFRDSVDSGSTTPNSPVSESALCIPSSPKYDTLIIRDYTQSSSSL

[5] = system: mGlu1; test: potency; type: cell-based; settings: relative to FITM; ref 9 values

Sequence of wild-type (WT) full-length human mGlu1 receptor (Q13255 19-1194): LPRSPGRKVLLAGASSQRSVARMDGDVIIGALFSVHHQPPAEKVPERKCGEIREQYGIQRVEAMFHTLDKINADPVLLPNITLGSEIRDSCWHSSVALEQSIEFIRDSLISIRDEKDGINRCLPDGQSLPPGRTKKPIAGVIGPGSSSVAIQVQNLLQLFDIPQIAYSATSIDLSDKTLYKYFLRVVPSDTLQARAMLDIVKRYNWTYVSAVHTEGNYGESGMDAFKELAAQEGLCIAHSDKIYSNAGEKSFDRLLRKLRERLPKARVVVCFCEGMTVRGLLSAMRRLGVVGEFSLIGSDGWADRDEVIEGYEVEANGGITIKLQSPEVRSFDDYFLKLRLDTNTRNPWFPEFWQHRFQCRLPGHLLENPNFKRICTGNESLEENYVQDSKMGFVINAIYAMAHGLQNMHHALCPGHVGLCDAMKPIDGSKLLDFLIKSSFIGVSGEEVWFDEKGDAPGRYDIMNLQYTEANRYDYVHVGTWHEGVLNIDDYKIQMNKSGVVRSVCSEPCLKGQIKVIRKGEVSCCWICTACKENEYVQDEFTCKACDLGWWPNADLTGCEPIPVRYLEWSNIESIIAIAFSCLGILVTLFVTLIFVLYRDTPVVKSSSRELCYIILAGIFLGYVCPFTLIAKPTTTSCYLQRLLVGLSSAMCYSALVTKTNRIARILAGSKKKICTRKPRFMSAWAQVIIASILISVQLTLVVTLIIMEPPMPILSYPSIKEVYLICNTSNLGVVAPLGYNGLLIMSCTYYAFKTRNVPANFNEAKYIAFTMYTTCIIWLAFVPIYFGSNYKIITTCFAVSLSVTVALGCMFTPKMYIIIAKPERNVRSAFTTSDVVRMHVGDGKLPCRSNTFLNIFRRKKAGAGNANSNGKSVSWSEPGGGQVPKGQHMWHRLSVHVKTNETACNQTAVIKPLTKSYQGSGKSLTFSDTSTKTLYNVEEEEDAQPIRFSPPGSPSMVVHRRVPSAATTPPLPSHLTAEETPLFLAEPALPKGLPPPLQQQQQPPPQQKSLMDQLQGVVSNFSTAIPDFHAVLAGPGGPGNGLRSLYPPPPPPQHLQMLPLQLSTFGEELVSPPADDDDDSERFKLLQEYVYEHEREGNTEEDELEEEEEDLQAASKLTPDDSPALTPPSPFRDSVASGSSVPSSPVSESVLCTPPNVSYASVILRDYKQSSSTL
Sequence of human mGlu1 receptor (Q13255 581-860): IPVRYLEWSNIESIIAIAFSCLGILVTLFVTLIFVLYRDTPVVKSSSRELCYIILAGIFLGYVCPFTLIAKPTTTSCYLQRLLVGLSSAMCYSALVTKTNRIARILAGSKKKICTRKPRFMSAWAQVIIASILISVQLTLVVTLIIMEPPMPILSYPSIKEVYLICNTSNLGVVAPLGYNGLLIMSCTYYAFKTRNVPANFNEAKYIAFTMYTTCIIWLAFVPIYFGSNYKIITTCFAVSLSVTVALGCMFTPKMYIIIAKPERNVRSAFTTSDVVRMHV

| Ki [1] | mode of allosteric modulation [2] | subtype selectivity [4] | SMILES | IC50 [3] | fold lower potency than FITM [5] |
| --- | --- | --- | --- | --- | --- |
| 2.5 nM | full NAM | selectivity for mGlu1 over mGlu5 | CC(C)Nc1cc(-c2csc(N(C)C(=O)c3ccc(F)cc3)n2)ncn1 [FITM, 4-fluoro-N-(4-(6-(isopropylamino)pyrimidin-4-yl)thiazol-2-yl)-N-methylbenzamide] | 5 nM | – |
| – | – | – | CC(C)N(C)c1cc(-c2csc(N(C)C(=O)c3ccc(F)cc3)n2)ncn1 [compound 28] | 77 nM | approximately 10 fold |
